For assay [1], the system named is mice and rats affected by thermal hyperalgesia. Briefly: Thermal hyperalgesia assay.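 Note: measurement times set by the study director and not disclosed.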 The class given is in vivo. The conditions noted are these: oral administration, constant dose, against the vehicle treatment group; latency to escape behaviors after thermal stimulation of hind paw.
The target of the next assay is hNav 1.7 (Homo sapiens (Human), UniProt Q15858). Briefly: Electrophysiological evaluation, automated patch clamp IonWorks Quattro (Population Patch Clamp mode). The conditions noted are these: HEK293A cells stably expressing hNav 1.7/β1/β2; response to second depolarization pulse, pre-pulse potential set to V1/2; read-out: hNav1.7 IC50. The class given is cell-based. A general note: In patch-clamp work, channel activity is measured electrically.
Sequence of hNav 1.7 (Q15858 whole entry): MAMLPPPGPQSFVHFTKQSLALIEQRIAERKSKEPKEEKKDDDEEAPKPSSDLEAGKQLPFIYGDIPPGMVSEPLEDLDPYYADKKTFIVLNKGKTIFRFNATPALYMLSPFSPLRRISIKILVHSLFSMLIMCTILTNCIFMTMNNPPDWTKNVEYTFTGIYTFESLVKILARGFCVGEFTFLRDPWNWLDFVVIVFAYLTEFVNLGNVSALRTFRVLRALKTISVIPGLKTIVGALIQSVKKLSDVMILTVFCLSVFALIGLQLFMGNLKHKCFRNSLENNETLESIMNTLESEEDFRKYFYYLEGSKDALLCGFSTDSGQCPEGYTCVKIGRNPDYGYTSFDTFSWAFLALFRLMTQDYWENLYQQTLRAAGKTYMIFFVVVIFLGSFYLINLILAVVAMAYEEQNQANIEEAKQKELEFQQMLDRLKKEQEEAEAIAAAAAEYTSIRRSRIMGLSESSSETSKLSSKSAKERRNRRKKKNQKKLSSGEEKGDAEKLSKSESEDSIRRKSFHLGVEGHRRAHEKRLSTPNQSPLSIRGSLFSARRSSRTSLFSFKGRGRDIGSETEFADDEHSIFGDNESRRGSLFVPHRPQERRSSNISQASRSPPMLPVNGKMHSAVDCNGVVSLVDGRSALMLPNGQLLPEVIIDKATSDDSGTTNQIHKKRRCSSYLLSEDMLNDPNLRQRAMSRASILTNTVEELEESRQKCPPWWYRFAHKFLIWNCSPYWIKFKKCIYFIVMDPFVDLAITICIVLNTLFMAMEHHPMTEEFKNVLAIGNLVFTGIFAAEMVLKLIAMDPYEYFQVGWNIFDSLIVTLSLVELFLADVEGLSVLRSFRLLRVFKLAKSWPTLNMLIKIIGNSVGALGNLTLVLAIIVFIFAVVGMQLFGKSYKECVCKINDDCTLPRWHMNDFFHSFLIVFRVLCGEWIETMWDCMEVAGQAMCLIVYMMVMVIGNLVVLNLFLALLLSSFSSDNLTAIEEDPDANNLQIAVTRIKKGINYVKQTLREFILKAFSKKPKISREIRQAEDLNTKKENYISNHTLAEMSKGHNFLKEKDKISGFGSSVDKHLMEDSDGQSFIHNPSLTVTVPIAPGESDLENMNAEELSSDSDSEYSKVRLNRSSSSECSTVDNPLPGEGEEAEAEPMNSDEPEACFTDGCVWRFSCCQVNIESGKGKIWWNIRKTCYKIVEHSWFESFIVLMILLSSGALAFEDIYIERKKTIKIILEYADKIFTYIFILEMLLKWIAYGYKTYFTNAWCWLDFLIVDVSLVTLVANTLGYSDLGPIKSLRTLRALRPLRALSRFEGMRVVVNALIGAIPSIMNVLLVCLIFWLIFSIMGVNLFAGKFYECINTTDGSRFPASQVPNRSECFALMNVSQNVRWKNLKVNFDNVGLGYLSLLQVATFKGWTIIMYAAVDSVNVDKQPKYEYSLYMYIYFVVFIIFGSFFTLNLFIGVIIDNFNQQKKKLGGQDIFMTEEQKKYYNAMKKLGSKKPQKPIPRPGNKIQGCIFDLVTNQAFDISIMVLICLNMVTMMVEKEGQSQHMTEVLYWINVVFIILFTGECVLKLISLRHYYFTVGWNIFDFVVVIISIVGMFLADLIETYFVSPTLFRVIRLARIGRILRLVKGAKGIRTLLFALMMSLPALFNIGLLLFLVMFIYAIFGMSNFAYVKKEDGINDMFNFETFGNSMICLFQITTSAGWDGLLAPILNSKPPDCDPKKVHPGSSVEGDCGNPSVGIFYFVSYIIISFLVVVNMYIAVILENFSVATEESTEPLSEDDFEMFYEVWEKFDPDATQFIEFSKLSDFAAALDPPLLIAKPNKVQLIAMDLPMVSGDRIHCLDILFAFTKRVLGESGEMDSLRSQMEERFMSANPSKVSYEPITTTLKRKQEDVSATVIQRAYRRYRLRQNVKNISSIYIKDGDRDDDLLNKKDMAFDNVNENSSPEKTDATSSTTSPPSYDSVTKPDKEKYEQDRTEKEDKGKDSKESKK
Sequence of hNav 1.7 (Q07699 19-218 partner): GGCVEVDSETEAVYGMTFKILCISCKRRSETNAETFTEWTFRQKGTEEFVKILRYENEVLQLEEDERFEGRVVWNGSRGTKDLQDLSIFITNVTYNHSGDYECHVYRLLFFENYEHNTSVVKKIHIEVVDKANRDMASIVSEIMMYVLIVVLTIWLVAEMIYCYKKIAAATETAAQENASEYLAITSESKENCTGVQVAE
Sequence of hNav 1.7 (O60939 30-215 partner): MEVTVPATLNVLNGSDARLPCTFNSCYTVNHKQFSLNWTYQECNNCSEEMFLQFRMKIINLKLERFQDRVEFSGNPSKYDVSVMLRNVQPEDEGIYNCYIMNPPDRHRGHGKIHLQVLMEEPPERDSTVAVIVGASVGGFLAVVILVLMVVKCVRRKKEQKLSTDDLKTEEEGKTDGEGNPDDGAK

The term IC50 denotes the concentration that gives 50% inhibition.

For the compound `Cn1nccc1[C@H]1CCCCC[C@@H]1Oc1cc(F)c(S(=O)(=O)Nc2ccncn2)cc1Cl` (relative stereo) [Example 60, 5-Chloro-2-fluoro-4-{[(1S*,2R*)-2-(1-methyl-1H-pyrazol-5-yl)cycloheptyl]oxy}-N-(pyrimidin-4-yl)benzenesulfonamide], the “Ratio of improving pain score (%)” value in assay [1] is listed as “C (“C” when the rate was 0 to 30%)”. Moreover, the 50% inhibitory concentration (IC50) on hNav 1.7 worked out at 37 nM.
For `Cn1nccc1[C@H]1CCC[C@@H]1Oc1cc(F)c(S(=O)(=O)Nc2ccncn2)cc1C#N` (relative stereo) [Example 62, 5-Cyano-2-fluoro-4-{[(1S*,2R*)-2-(1-methyl-1H-pyrazol-5-yl)cyclopentyl]oxy}-N-(pyrimidin-4-yl)benzenesulfonamide], the “Ratio of improving pain score (%)” value in assay [1] is “B (“B” when the rate was 31 to 60%)”. For the same compound, the concentration for half-maximal inhibition (IC50) on hNav 1.7 came out at 120 nM.
As for `Cc1c(O[C@H]2CCC[C@@H]2c2ccnn2C)ccc(S(=O)(=O)Nc2ccncn2)c1F` (relative stereo) [Example 65, 2-Fluoro-3-methyl-4-{[(1S*,2R*)-2-(1-methyl-1H-pyrazol-5-yl)cyclopentyl]oxy}-N-(pyrimidin-4-yl)benzenesulfonamide], in assay [1], the “Ratio of improving pain score (%)” value was “B (“B” when the rate was 31 to 60%)”. Further, on hNav 1.7, the 50% inhibitory concentration (IC50) amounted to 130 nM.
On the same counts, the results for `Cc1c(O[C@H]2CCCC[C@@H]2c2ccnn2C)ccc(S(=O)(=O)Nc2ccncn2)c1F` (relative stereo) [Example 66, 2-Fluoro-3-methyl-4-{[(1S*,2R*)-2-(1-methyl-1H-pyrazol-5-yl)cyclohexyl]oxy}-N-(pyrimidin-4-yl)benzenesulfonamide] are “A (“A” when the rate was 61 to 100%)” and 17 nM.
On to `Cn1nccc1[C@H]1CC(C)(C)CC[C@@H]1Oc1cc(F)c(S(=O)(=O)Nc2ccncn2)cc1F` (relative stereo) [Example 67, 4-{[(1S*,2R*)-4,4-Dimethyl-2-(1-methyl-1H-pyrazol-5-yl)cyclohexyl]oxy}-2,5-difluoro-N-(pyrimidin-4-yl)benzenesulfonamide], for which, in assay [1], the “Ratio of improving pain score (%)” value was “C (“C” when the rate was 0 to 30%)”. Moreover, the IC50 on hNav 1.7 turned out to be 43 nM.
As to `Cc1cc(S(=O)(=O)Nc2ccncn2)c(F)cc1O[C@H]1CCCC[C@@H]1c1c[nH]nc1N` (relative stereo) [Example 68, 4-{[(1S*,2R*)-2-(3-Amino-1H-pyrazol-4-yl)cyclohexyl]oxy}-2-fluoro-5-methyl-N-(pyrimidin-4-yl)benzenesulfonamide], the “Ratio of improving pain score (%)” value in assay [1] is reported as “B (“B” when the rate was 31 to 60%)”. The half-inhibitory concentration (IC50) on hNav 1.7 stood at 86 nM.
Turning to `Nc1ncccc1[C@H]1CCCC[C@@H]1Oc1cc(F)c(S(=O)(=O)Nc2ccncn2)cc1F` (relative stereo) [Example 69, 4-{[(1S*,2R*)-2-(2-Aminopyridin-3-yl)cyclohexyl]oxy}-2,5-difluoro-N-(pyrimidin-4-yl)benzenesulfonamide], in assay [1], the “Ratio of improving pain score (%)” value is given as “B (“B” when the rate was 31 to 60%)”. At hNav 1.7, the IC50 is 87 nM.
`Nc1n[nH]cc1[C@H]1CCCC[C@@H]1Oc1cc(F)c(S(=O)(=O)Nc2ccncn2)cc1Cl` (relative stereo) [Example 71, 4-{[(1S*,2R*)-2-(3-Amino-1H-pyrazol-4-yl)cyclohexyl]oxy}-5-chloro-2-fluoro-N-(pyrimidin-4-yl)benzenesulfonamide]: the “Ratio of improving pain score (%)” value in assay [1] is reported as “A (“A” when the rate was 61 to 100%)”. In addition, at hNav 1.7, the IC50 turned out to be 150 nM.
As for `Cn1nccc1[C@H]1CCC(C)(C)C[C@@H]1Oc1cc(F)c(S(=O)(=O)Nc2ccncn2)cc1F` (relative stereo) [Example 72, 4-{[(1S*,2R*)-5,5-Dimethyl-2-(1-methyl-1H-pyrazol-5-yl)cyclohexyl]oxy}-2,5-difluoro-N-(pyrimidin-4-yl)benzenesulfonamide], in assay [1], the “Ratio of improving pain score (%)” value is listed as “C (“C” when the rate was 0 to 30%)”. At hNav 1.7, the IC50 was found to be 36 nM.
`Cc1c(O[C@H]2CCCC[C@@H]2c2c[nH]nc2N)ccc(S(=O)(=O)Nc2ccncn2)c1F` (relative stereo) [Example 73, 4-{[(1S*,2R*)-2-(3-Amino-1H-pyrazol-4-yl)cyclohexyl]oxy}-2-fluoro-3-methyl-N-(pyrimidin-4-yl)benzenesulfonamide]: the “Ratio of improving pain score (%)” value in assay [1] is “A (“A” when the rate was 61 to 100%)”. For the same compound, the IC50 at hNav 1.7 came to 100 nM.
Take `Cn1nccc1[C@H]1CCCC[C@@H]1Oc1ccc(S(=O)(=O)Nc2ccncn2)c(F)c1Cl` (relative stereo) [Example 79, 3-Chloro-2-fluoro-4-{[(1S*,2R*)-2-(1-methyl-1H-pyrazol-5-yl)cyclohexyl]oxy}-N-(pyrimidin-4-yl)benzenesulfonamide]: in assay [1], the “Ratio of improving pain score (%)” value is listed as “C (“C” when the rate was 0 to 30%)”. Besides, on hNav 1.7, the IC50 is 70 nM.
Consider `Cn1nccc1[C@H]1CCC[C@@H]1Oc1ccc(S(=O)(=O)Nc2ccncn2)c(F)c1Cl` (relative stereo) [Example 80, 3-Chloro-2-fluoro-4-{[(1S*,2R*)-2-(1-methyl-1H-pyrazol-5-yl)cyclopentyl]oxy}-N-(pyrimidin-4-yl)benzenesulfonamide], for which the “Ratio of improving pain score (%)” value in assay [1] is listed as “C (“C” when the rate was 0 to 30%)”. Besides, on hNav 1.7, the half-maximal inhibitory concentration (IC50) stood at 86 nM.
As to `Cc1cc(S(=O)(=O)Nc2ccncn2)c(F)cc1O[C@H]1CCCC[C@@H]1c1cn[nH]c1` (relative stereo) [Example 81, 2-Fluoro-5-methyl-4-{[(1S*,2R*)-2-(1H-pyrazol-4-yl)cyclohexyl]oxy}-N-(pyrimidin-4-yl)benzenesulfonamide], the “Ratio of improving pain score (%)” value in assay [1] was “C (“C” when the rate was 0 to 30%)”. Besides, the half-maximal inhibitory concentration (IC50) at hNav 1.7 is 150 nM.
`Nc1nnccc1[C@H]1CCCC[C@@H]1Oc1cc(F)c(S(=O)(=O)Nc2ccncn2)cc1F` (relative stereo) [Example 82, 4-{[(1S*,2R*)-2-(3-Aminopyridazin-4-yl)cyclohexyl]oxy}-2,5-difluoro-N-(pyrimidin-4-yl)benzenesulfonamide]: in assay [1], the “Ratio of improving pain score (%)” value is recorded as “B (“B” when the rate was 31 to 60%)”. In addition, the concentration for half-maximal inhibition (IC50) at hNav 1.7 turned out to be 56 nM.
For the compound `O=S(=O)(Nc1ccncn1)c1ccc(O[C@H]2CCCC[C@@H]2c2cn[nH]c2)c(F)c1F` (relative stereo) [Example 83, 2,3-Difluoro-4-{[(1S*,2R*)-2-(1H-pyrazol-4-yl)cyclohexyl]oxy}-N-(pyrimidin-4-yl)benzenesulfonamide], the “Ratio of improving pain score (%)” value in assay [1] is listed as “B (“B” when the rate was 31 to 60%)”. Moreover, at hNav 1.7, the 50% inhibitory concentration (IC50) came to 650 nM.
Consider `Cc1c(O[C@H]2CC(F)(F)CC[C@@H]2c2ccnn2C)ccc(S(=O)(=O)Nc2ccncn2)c1F` (relative stereo) [Example 84, 4-{[(1S*,2R*)-5,5-Difluoro-2-(1-methyl-1H-pyrazol-5-yl)cyclohexyl]oxy}-2-fluoro-3-methyl-N-(pyrimidin-4-yl)benzenesulfonamide], for which the “Ratio of improving pain score (%)” value in assay [1] was “B (“B” when the rate was 31 to 60%)”. For the same compound, on hNav 1.7, the IC50 was determined as 36 nM.
With `Cc1cc(S(=O)(=O)Nc2ccncn2)c(F)cc1O[C@H]1CCC[C@@H]1c1c[nH]nc1N` (relative stereo) [Example 85, 4-{[(1S*,2R*)-2-(3-Amino-1H-pyrazol-4-yl)cyclopentyl]oxy}-2-fluoro-5-methyl-N-(pyrimidin-4-yl)benzenesulfonamide], the “Ratio of improving pain score (%)” value in assay [1] is “B (“B” when the rate was 31 to 60%)”. In addition, the IC50 on hNav 1.7 came to 170 nM.
As for `Cn1nccc1[C@H]1CCCC[C@@H]1Oc1cc(F)c(S(=O)(=O)Nc2nncs2)cc1Cl` (relative stereo) [Example 86, 5-Chloro-2-fluoro-4-{[(1S*,2R*)-2-(1-methyl-1H-pyrazol-5-yl)cyclohexyl]oxy}-N-(1,3,4-thiadiazol-2-yl)benzenesulfonamide], the “Ratio of improving pain score (%)” value in assay [1] is “A (“A” when the rate was 61 to 100%)”. Moreover, on hNav 1.7, the IC50 was 36 nM.
In the case of `Cn1nccc1[C@H]1CCC[C@@H]1Oc1cc(F)c(S(=O)(=O)Nc2nncs2)cc1Cl` (relative stereo) [Example 87, 5-Chloro-2-fluoro-4-{[(1S*,2R*)-2-(1-methyl-1H-pyrazol-5-yl)cyclopentyl]oxy}-N-(1,3,4-thiadiazol-2-yl)benzenesulfonamide], in assay [1], the “Ratio of improving pain score (%)” value was “B (“B” when the rate was 31 to 60%)”. For the same compound, on hNav 1.7, the half-maximal inhibitory concentration (IC50) was 280 nM.
For `Cn1nccc1[C@H]1CC(F)(F)CC[C@@H]1Oc1cc(F)c(S(=O)(=O)Nc2ccncn2)cc1F` (relative stereo) [Example 88, 4-{[(1S*,2R*)-4,4-Difluoro-2-(1-methyl-1H-pyrazol-5-yl)cyclohexyl]oxy}-2,5-difluoro-N-(pyrimidin-4-yl)benzenesulfonamide], the “Ratio of improving pain score (%)” value in assay [1] was “C (“C” when the rate was 0 to 30%)”. Moreover, the concentration for half-maximal inhibition (IC50) on hNav 1.7 is 320 nM.
Take `Cc1cc(S(=O)(=O)Nc2ccncn2)c(F)cc1O[C@H]1CC(F)(F)CC[C@@H]1c1ccnn1C` (relative stereo) [Example 90, 4-{[(1S*,2R*)-5,5-Difluoro-2-(1-methyl-1H-pyrazol-5-yl)cyclohexyl]oxy}-2-fluoro-5-methyl-N-(pyrimidin-4-yl)benzenesulfonamide]: the “Ratio of improving pain score (%)” value in assay [1] is recorded as “B (“B” when the rate was 31 to 60%)”. Besides, the IC50 on hNav 1.7 is 89 nM.
`Nc1n[nH]cc1[C@H]1CCCC[C@@H]1Oc1ccc(S(=O)(=O)Nc2ccncn2)c(F)c1Cl` (relative stereo) [Example 91, 4-{[(1S*,2R*)-2-(3-Amino-1H-pyrazol-4-yl)cyclohexyl]oxy}-3-chloro-2-fluoro-N-(pyrimidin-4-yl)benzenesulfonamide]: in assay [1], the “Ratio of improving pain score (%)” value is on record as “A (“A” when the rate was 61 to 100%)”. For the same compound, at hNav 1.7, the half-inhibitory concentration (IC50) worked out at 170 nM.
Regarding `Cn1nccc1[C@H]1CC(C)(C)C[C@@H]1Oc1cc(F)c(S(=O)(=O)Nc2ccncn2)cc1F` (relative stereo) [Example 93, 4-{[(1S*,2R*)-4,4-Dimethyl-2-(1-methyl-1H-pyrazol-5-yl)cyclopentyl]oxy}-2,5-difluoro-N-(pyrimidin-4-yl)benzenesulfonamide], the “Ratio of improving pain score (%)” value in assay [1] is on record as “B (“B” when the rate was 31 to 60%)”. Further, the IC50 on hNav 1.7 was determined as 65 nM.

(Values after patent US9493448B2, “Cycloalkane derivatives” (Daiichi Sankyo Company, Limited, priority 2012, dated 2016).)
